Molecular target: human mGlu5a receptor (Homo sapiens (Human), UniProt P41594)
Test: Intracellular Ca2+ mobilization assay (mGlu5 PAM)
Type: cell-based
Conditions: for EC50: HEK-293 cells stably transfected with human mGlu5a, L-glutamate added at EC20 after pre-incubation with test compound, read-out: EC50 (nM) mGlu5PAM; for Emax: maximal response in % of the maximal stimulatory effect obtained with saturating concentrations of L-glutamate, read-out: Eff. (%)
Experimental: A monoclonal HEK-293 cell line stably transfected with a cDNA encoding for the human mGlu5a receptor was generated; for the work with mGlu5 Positive Allosteric Modulators (PAMs), a cell line with low receptor expression levels and low constitutive receptor activity was selected to allow the differentiation of agonistic versus PAM activity. Cells were cultured according to standard protocols (Freshney, 2000) in Dulbecco's Modified Eagle Medium with high glucose supplemented with 1 mM glutamine, 10% (vol/vol) heat-inactivated bovine calf serum, Penicillin/Streptomycin, 50 μg/ml hygromycin and 15 μg/ml blasticidin (all cell culture reagents and antibiotics from Invitrogen, Basel, Switzerland).
About 24 hrs before an experiment, 5×10^4 cells/well were seeded in poly-D-lysine coated, black/clear-bottomed 96-well plates. The cells were loaded with 2.5 μM Fluo-4AM in loading buffer (1×HBSS, 20 mM HEPES) for 1 hr at 37° C. and washed five times with loading buffer. The cells were transferred into a Functional Drug Screening System 7000 (Hamamatsu, Paris, France), and 11 half logarithmic serial dilutions of test compound at 37° C. were added and the cells were incubated for 10-30 min. with on-line recording of fluorescence. Following this pre-incubation step, the agonist L-glutamate was added to the cells at a concentration corresponding to EC20 (typically around 80 μM) with on-line recording of fluorescence; in order to account for day-to-day variations in the responsiveness of cells, the EC20 of glutamate was determined immediately ahead of each experiment by recording of a full dose-response curve of glutamate.
Responses were measured as peak increase in fluorescence minus basal (i.e. fluorescence without addition of L-glutamate), normalized to the maximal stimulatory effect obtained with saturating concentrations of L-glutamate. Graphs were plotted with the % maximal stimulatory using XLfit, a curve fitting program that iteratively plots the data using Levenburg Marquardt algorithm. The single site competition analysis equation used was y=A+((B−A)/(1+((x/C)D))), where y is the % maximal stimulatory effect, A is the minimum y, B is the maximum y, C is the EC50, x is the log10 of the concentration of the competing compound and D is the slope of the curve (the Hill Coefficient). From these curves the EC50 (concentration at which half maximal stimulation was achieved), the Hill coefficient as well as the maximal response in % of the maximal stimulatory effect obtained with saturating concentrations of L-glutamate were calculated.
A depression of the signal observed after addition of the EC20 concentration of L-glutamate was indicative of an inhibitory activity of the test compound.

Sequence of human mGlu5a receptor (P41594 other isoform, or with tags, fused parts or gaps): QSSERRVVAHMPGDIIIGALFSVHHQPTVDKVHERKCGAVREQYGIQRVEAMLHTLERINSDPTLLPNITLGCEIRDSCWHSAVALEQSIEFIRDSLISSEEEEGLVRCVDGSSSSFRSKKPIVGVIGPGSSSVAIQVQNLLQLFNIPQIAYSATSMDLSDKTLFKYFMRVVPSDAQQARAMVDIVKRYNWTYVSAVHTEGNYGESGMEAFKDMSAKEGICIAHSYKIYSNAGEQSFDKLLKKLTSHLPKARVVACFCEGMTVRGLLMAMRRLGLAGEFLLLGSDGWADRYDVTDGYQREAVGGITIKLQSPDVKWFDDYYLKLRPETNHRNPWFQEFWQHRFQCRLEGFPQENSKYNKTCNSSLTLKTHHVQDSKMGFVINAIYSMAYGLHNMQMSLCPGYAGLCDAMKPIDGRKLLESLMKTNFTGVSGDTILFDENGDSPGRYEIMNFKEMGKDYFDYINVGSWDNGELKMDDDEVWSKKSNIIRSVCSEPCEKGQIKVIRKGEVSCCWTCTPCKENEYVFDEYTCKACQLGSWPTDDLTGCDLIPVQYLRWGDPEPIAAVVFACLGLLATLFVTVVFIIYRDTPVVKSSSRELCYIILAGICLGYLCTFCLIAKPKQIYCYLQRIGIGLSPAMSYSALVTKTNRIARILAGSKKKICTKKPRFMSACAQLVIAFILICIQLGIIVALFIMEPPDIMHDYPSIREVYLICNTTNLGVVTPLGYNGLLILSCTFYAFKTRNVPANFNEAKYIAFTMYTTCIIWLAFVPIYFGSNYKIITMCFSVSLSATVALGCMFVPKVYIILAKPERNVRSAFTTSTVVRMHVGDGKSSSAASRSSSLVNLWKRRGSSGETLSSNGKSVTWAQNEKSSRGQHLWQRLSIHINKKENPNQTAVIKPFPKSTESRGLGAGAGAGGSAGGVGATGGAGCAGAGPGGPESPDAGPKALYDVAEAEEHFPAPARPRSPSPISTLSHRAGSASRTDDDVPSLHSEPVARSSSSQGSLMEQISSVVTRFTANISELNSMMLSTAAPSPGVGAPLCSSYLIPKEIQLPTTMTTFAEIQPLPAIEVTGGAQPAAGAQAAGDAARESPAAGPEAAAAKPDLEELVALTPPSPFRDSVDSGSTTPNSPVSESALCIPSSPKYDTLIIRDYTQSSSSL

Row | Structure (SMILES) | EC50 [nM] | Emax [%]
1 | COCC1CN(c2ccc(C#Cc3ccccc3)cn2)C(=O)O1 (racemic) [Example 2, (5RS)-5-Methoxymethyl-3-(5-phenylethynyl-pyridin-2-yl)-oxazolidin-2-one] | 47 | 34
2 | CC(C)(C)C1CN(c2ccc(C#Cc3ccccc3)cn2)C(=O)O1 (racemic) [Example 8, (5RS)-5-tert-Butyl-3-(5-phenylethynyl-pyridin-2-yl)-oxazolidin-2-one] | 17 | 62
3 | CC1(C)CN(c2ccc(C#Cc3ccccc3)cn2)C(=O)C1O (racemic) [Example 14, (3RS)-3-Hydroxy-4,4-dimethyl-1-(5-phenylethynyl-pyridin-2-yl)-pyrrolidin-2-one] | 388 | 114
4 | CC(C)(C)C1(C)CN(c2ccc(C#Cc3ccccc3)cn2)C(=O)O1 (racemic) [Example 19, (5RS)-5-tert-Butyl-5-methyl-3-(5-phenylethynyl-pyridin-2-yl)-oxazolidin-2-one] | 27 | 85
5 | O=C1O[C@H]2CCC[C@H]2N1c1ccc(C#Cc2ccccc2)cn1 (racemic) [Example 22, (3aRS,6aSR)-3-(5-Phenylethynyl-pyridin-2-yl)-hexahydro-cyclopentaoxazol-2-one] | 14 | 74
6 | O=C1O[C@H]2CCC[C@H]2N1c1ccc(C#Cc2cccnc2)cn1 (racemic) [Example 23, (3aRS,6aSR)-3-(5-Pyridin-3-ylethynyl-pyridin-2-yl)-hexahydro-cyclopentaoxazol-2-one] | 12 | 92
7 | O=C1O[C@H]2CCC[C@H]2N1c1ccc(C#Cc2cncc(F)c2)cn1 (racemic) [Example 24, (3aRS,6aSR)-3-[5-(5-Fluoro-pyridin-3-ylethynyl)-pyridin-2-yl]-hexahydro-cyclopentaoxazol-2-one] | 35 | 73
8 | CC1N(c2ccc(C#Cc3ccccc3)cn2)C(=O)OC1(C)C (racemic) [Example 27, (RS)-4,5,5-Trimethyl-3-(5-phenylethynyl-pyridin-2-yl)-oxazolidin-2-one] | 15 | 61
9 | CN1C(=O)N(c2ccc(C#Cc3ccccc3)cn2)CC1C1CCCC1 (racemic) [Example 45, (RS)-4-Cyclopentyl-3-methyl-1-(5-phenylethynyl-pyridin-2-yl)-imidazolidin-2-one] | 57 | 97
10 | O=C1[C@H]2CCC[C@H]2N1c1ccc(C#Cc2ccccc2)cn1 (racemic) [Example 46, (1RS,5SR)-6-(5-Phenylethynyl-pyridin-2-yl)-6-aza-bicyclo[3.2.0]heptan-7-one] | 26 | 27
11 | O=C1O[C@H]2CCCC[C@H]2N1c1ccc(C#Cc2ccccc2)cn1 (racemic) [Example 47, (6SR,7RS)-3-(5-Phenylethynyl-pyridin-2-yl)-hexahydro-benzooxazol-2-one] | 36 | 109
12 | O=C1N(c2ccc(C#Cc3ccccc3)cn2)CC2CCCCN12 (racemic) [Example 58, (RS)-2-(5-Phenylethynyl-pyridin-2-yl)-hexahydro-imidazo[1,5-a]pyridin-3-one] | 33 | 43
13 | COC1C(=O)N(c2ccc(C#Cc3ccccc3)cn2)CC1(C)C (racemic) [Example 60, (RS)-3-Methoxy-4,4-dimethyl-1-(5-phenylethynyl-pyridin-2-yl)-pyrrolidin-2-one] | 35 | 89
14 | COC1C(=O)N(c2ccc(C#Cc3cncc(Cl)c3)cn2)CC1(C)C (racemic) [Example 63, (RS)-1-[5-(5-Chloro-pyridin-3-ylethynyl)-pyridin-2-yl]-3-methoxy-4,4-dimethyl-pyrrolidin-2-one] | 70 | 99
15 | COC1C(=O)N(c2ccc(C#Cc3cccc(C)c3)cn2)CC1(C)C (racemic) [Example 64, (RS)-3-Methoxy-4,4-dimethyl-1-(5-m-tolylethynyl-pyridin-2-yl)-pyrrolidin-2-one] | 87 | 56
16 | COC1C(=O)N(c2ccc(C#Cc3cccc(F)c3)cn2)CC1(C)C (racemic) [Example 65, (RS)-1-[5-(3-Fluoro-phenylethynyl)-pyridin-2-yl]-3-methoxy-4,4-dimethyl-pyrrolidin-2-one] | 43 | 91
17 | COC1C(=O)N(c2ccc(C#Cc3ccc(F)cc3)cn2)CC1(C)C (racemic) [Example 66, (RS)-1-[5-(4-Fluoro-phenylethynyl)-pyridin-2-yl]-3-methoxy-4,4-dimethyl-pyrrolidin-2-one] | 75 | 87
18 | O=C1N(c2ccc(C#Cc3cccnc3)cn2)CC2CCCCN12 (racemic) [Example 70, (RS)-2-(5-Pyridin-3-ylethynyl-pyridin-2-yl)-hexahydro-imidazo[1,5-a]pyridin-3-one] | 74 | 51
19 | O=C1N(c2ccc(C#Cc3cccc(F)c3)cn2)CC2CCCCN12 (racemic) [Example 71, (RS)-2-[5-(3-Fluoro-phenylethynyl)-pyridin-2-yl]-hexahydro-imidazo[1,5-a]pyridin-3-one] | 17 | 41
20 | CN1C(=O)N(c2ccc(C#Cc3ccccc3)cn2)CC1C1CC1 (racemic) [Example 83, (RS)-4-Cyclopropyl-3-methyl-1-(5-phenylethynyl-pyridin-2-yl)-imidazolidin-2-one] | 53 | 86
21 | CC1(C)OC(=O)N(c2ccc(C#Cc3ccccc3)cn2)CC1O (racemic) [Example 95, (RS)-5-Hydroxy-6,6-dimethyl-3-(5-phenylethynyl-pyridin-2-yl)-[1,3]oxazinan-2-one] | 47 | 118
22 | O=C1[C@H]2CCC[C@H]2N1c1ccc(C#Cc2cccnc2)cn1 (racemic) [Example 98, (1RS,5SR)-6-(5-Pyridin-3-ylethynyl-pyridin-2-yl)-6-aza-bicyclo[3.2.0]heptan-7-one] | 39 | 73
23 | O=C1O[C@H]2CCC[C@@H]2CN1c1ccc(C#Cc2ccccc2)cn1 (racemic) [Example 102, (4aRS,7aSR)-3-(5-Phenylethynyl-pyridin-2-yl)-hexahydro-cyclopenta[e][1,3]oxazin-2-one] | 43 | 115
24 | CC1CN(c2ccc(C#Cc3ccccc3)cn2)C(=O)OC1(C)C (racemic) [Example 104, (RS)-5,6,6-Trimethyl-3-(5-phenylethynyl-pyridin-2-yl)-[1,3]oxazinan-2-one] | 42 | 109
25 | COCC1CCN(c2ccc(C#Cc3ccccc3)cn2)C(=O)O1 (racemic) [Example 105, (RS)-6-Methoxymethyl-3-(5-phenylethynyl-pyridin-2-yl)-[1,3]oxazinan-2-one] | 68 | 51
26 | CN1C(=O)N(c2ccc(C#Cc3ccccc3)cn2)[C@@H]2CCC[C@@H]21 (racemic) [Example 106, (3aRS, 6aSR)-1-methyl-3-(5-(phenylethynyl)pyridin-2-yl)hexahydrocyclopenta[d]imidazol-2(1H)-one] | 30 | 42
27 | CN1C(=O)N(c2ccc(C#Cc3ccccc3)cn2)CC1C(C)(C)C (racemic) [Example 107, (RS)-4-tert-Butyl-3-methyl-1-(5-phenylethynyl-pyridin-2-yl)-imidazolidin-2-one] | 59 | 106

— US9315498B2, “Arlethynyl derivatives” (Hoffmann-La Roche Inc., priority 2010, dated 2016)
